Drawing on patent US7977371B2, “Pyrrole derivative having ureido group and aminocarbonyl group as substituents” (Santen Pharmaceutical Co., Ltd., priority 2007, dated 2011), this text covers response vs control in vivo and inhibition for eight molecules.

The test system of assay [1] is choroidal neovascularization induced by krypton laser irradiation. The assay is described as follows: Evaluation test for inhibitory effect on choroidal neovascularization (rat model induced by krypton laser irradiation). Conditions: po, 168 h, 30 mg/kg/day orally once a day for 7 days (day 0 to day 6), fluorescein fundus angiography on day 7, versus vehicle administration group, average of 5 to 8 eyes of 3 to 4 rats, read-out: Ratio of incidence of neovascularization (% of control). The assay is classed as in vivo, Brown Norway rat. The source says:
2. Evaluation Test for Inhibitory Effect on Choroidal Neovascularization
As one of the methods widely used for evaluating an inhibitory effect on choroidal neovascularization, a rat model of choroidal neovascularization induced by krypton laser irradiation has been reported in Graefe's Arch. Cli. Exp. Ophthalmol., 235, 313-319 (1997). According to the method described in this document, a ratio of incidence of choroidal neovascularization of a present compound administration group to that of a vehicle administration group was calculated using the rat model of choroidal neovascularization, and an inhibitory effect of the present compound on choroidal neovascularization was evaluated using the calculated value as an index. Specific test methods will be described below.
(Preparation of Administration Liquid of Test Compound)
A test compound was suspended in a 1% aqueous methyl cellulose solution, whereby a 6 mg/mL test compound suspension was prepared.
(Preparation of Rat Model of Choroidal Neovascularization Induced by Krypton Laser)
1) To a Brown Norway rat (male, 7 to 8 weeks of age), a mixed solution of a 5% ketamine hydrochloride injection solution and a 2% xylazine hydrochloride injection solution (7:1) was intramuscularly administered at a dose of 1 mL/kg to effect systemic anesthesia.
2) After a 0.5% tropicamide-0.5% phenylephrine hydrochloride eye drop was instilled into the eyes to cause mydriasis, photocoagulation was performed using a krypton laser photocoagulation apparatus (MC-7000, manufactured by NIDEK Co., Ltd.). The krypton laser irradiation was performed at eight spots per eye sparsely by focusing on the retinal deep layer avoiding large retinal vessels in a posterior section of ocular fundus. The photocoagulation conditions were set such that the spot size was 100 μm, the output was 100 mW and the coagulation time was 0.1 sec.
3) After the photocoagulation, the ocular fundus photography was performed (PRO III, manufactured by Kowa Company, Ltd.) to confirm the photocoagulation (krypton laser irradiation) sites.
(Administration Method of Test Compound)
1) The test compound suspension (30 mg/kg/day) was orally administered once a day for 7 consecutive days from the day of krypton laser irradiation (day 0) until day 6.
2) A 1% aqueous methyl cellulose solution was administered in the same manner as in 1) in place of the test compound suspension, and the obtained result was designated as the vehicle administration group.
1). On day 7 after the photocoagulation, 0.1 mL of a 10% aqueous fluorescein solution was injected into the tail vein, and fluorescein fundus angiography was performed (PRO III, manufactured by Kowa Company, Ltd.).
2) In the fluorescein fundus angiography, a spot where fluorescence leakage was not observed was determined to be negative and a spot where fluorescence leakage was observed was determined to be positive. With respect to photocoagulation sites where a little fluorescence leakage was observed, in the case where there were two such photocoagulation sites, it was determined to be positive.
(Calculation Formula of Incidence of Neovascularization)
An incidence (%) of neovascularization of each administration group and a ratio of incidence of neovascularization of the test compound administration group to that of the vehicle administration group were calculated from the following formulae, respectively. Incidence of Neovascularization of Each Administration Group (%)=[(Number of Positive Photocoagulation. Sites)/(Number of Total Photocoagulation Sites)]×100 Ratio of Incidence of Neovascularization of Test Compound Administration Group to that of Vehicle Administration Group (% of Control)=[(Incidence of Neovascularization of Test Compound Administration Group)/(Incidence of Neovascularization of Vehicle Administration Group)]×100 (Evaluation Results)

Assay [2] concerns TNF-α-induced IL-6 production in normal human skin fibroblast-derived CCD-1059Sk cells. Description: Test for measurement of inhibitory activity against TNF-α-induced IL-6 production. Conditions: Homo sapiens, CCD-1059Sk, 16 h, test compound at 10 μM, TNF-α stimulation 16 hours, inhibition ratio of 100% or more is indicated as 100%. Format: cell-based. The protocol: 1. Test for Measurement of Inhibitory Activity Against IL-6 Production
An inhibitory effect on TNF-α-induced IL-6 production in normal human skin fibroblast-derived CCD-1059Sk cells (ATCC No. CRL-2072) was evaluated. The amount of IL-6 was determined by the homogeneous time-resolved fluorescence method using HTRF™ Human IL-6 kit (Cat. No. 62IL6PEB, manufactured by CIS-Bio international, Inc.). Specific test methods will be described below.
(Preparation of Test Compound Solution)
After a test compound was dissolved in dimethyl sulfoxide, the resulting solution was diluted with D-MEM medium containing 0.1% heat-inactivated fetal bovine serum, 0.1 mM MEM non-essential amino acid solution, 100 U/mL penicillin and 100 μg/mL streptomycin (hereinafter referred to as “medium”), whereby a 40 μM test compound solution was prepared.
(Test Method and Measurement Method)
1) CCD-1059Sk cells prepared at a density of 3×10^5 cells/mL were inoculated in a 384-well plate in an amount of 10 μL per well such that the cell density was 3×10^3 cells/well.
2). After the plate was incubated at 37° C. for several hours in a CO2 incubator, 5 μL of the test compound was added to each well.
3) After the plate was incubated at 37° C. for 1 hour in a CO2 incubator, 5 μL of a 40 ng/mL TNF-α solution was added to each well.
4) After the plate was incubated at 37° C. for 16 hours in a CO2 incubator, 10 μL of a cryptate-labeled anti-IL-6 antibody and an XL665-labeled anti-IL-6 antibody containing potassium fluoride was added to each well.
5) After the plate was incubated at room temperature for several hours, a fluorescence intensity ratio (665 nm/620 nm) was determined for each well using a multimode plate reader Analyse™ HT (manufactured by Molecular Device Corporation) and Criterion Host software version 2.00 (manufactured by Molecular Device Corporation), and then, the amount of IL-6 was calculated.
6) The same procedures as in the above 1) to 5) were performed except that 0.4% dimethyl sulfoxide was added in place of the test compound, and the obtained result was designated as the control.
7) The same procedures as in the above 1) to 5) were performed except that 0.4% dimethyl sulfoxide and the medium were added in place of the test compound and the TNF-α solution, respectively, and the obtained result was designated as the background.
(Calculation Formula of IL-6 Production Inhibition Ratio)
An IL-6 production inhibition ratio (%) was calculated from the following formula. IL-6 Production Inhibition Ratio (%)=100×{1−[(Amount of IL-6 for Test Compound)−(Amount of IL-6 for Background)/(Amount of IL-6 for Control)−(Amount of IL-6 for Background)]} (Evaluation Results)

`NC(=O)Nc1[nH]c(-c2ccc(F)cc2)cc1C(N)=O` [Compound 1-8, 2-Aminocarbonylamino-5-(4-fluorophenyl) pyrrole-3-carboxamide]: the response vs control in vivo at 30 mg/kg in assay [1] came to 31%. In addition, the inhibition at 10 µM in assay [2] was 93%.

`COc1ccccc1-c1cc(C(N)=O)c(NC(N)=O)[nH]1` [Compound 1-9, 2-Aminocarbonylamino-5-(2-methoxyphenyl) pyrrole-3-carboxamide]: in assay [1], the response vs control in vivo at 30 mg/kg came out at 40%. In addition, in assay [2], the inhibition at 10 µM came out at 100%.

Regarding `NC(=O)Nc1[nH]c(-c2cccc(Cl)c2)cc1C(N)=O` [Compound 1-25, 2-Aminocarbonylamino-5-(3-chlorophenyl) pyrrole-3-carboxamide], the response vs control in vivo at 30 mg/kg in assay [1] turned out to be 52%. For the same molecule, the inhibition at 10 µM in assay [2] was 99%.

Turning to `CCCOc1ccccc1-c1cc(C(N)=O)c(NC(N)=O)[nH]1` [Compound 4-4, 2-Aminocarbonylamino-5-(2-propyloxyphenyl) pyrrole-3-carboxamide], the response vs control in vivo at 30 mg/kg in assay [1] worked out at 71%. In addition, the inhibition at 10 µM in assay [2] is 90%.

`CCCOc1ccc(F)cc1-c1cc(C(N)=O)c(NC(N)=O)[nH]1` [Compound 4-34, 2-Aminocarbonylamino-5-(5-fluoro-2-propyloxyphenyl) pyrrole-3-carboxamide]: the response vs control in vivo at 30 mg/kg in assay [1] came to 75%. Also, in assay [2], the inhibition at 10 µM amounted to 100%.

For `CCCOc1ccc(Cl)cc1-c1cc(C(N)=O)c(NC(N)=O)[nH]1` [Compound 4-37, 2-Aminocarbonylamino-5-(5-chloro-2-propyloxyphenyl)pyrrole-3-carboxamide], in assay [1], the response vs control in vivo at 30 mg/kg stood at 69%. Besides, the inhibition at 10 µM in assay [2] was 97%.

Regarding `N#CCOc1ccc(Cl)cc1-c1cc(C(N)=O)c(NC(N)=O)[nH]1` [Compound 4-43, 2-Aminocarbonylamino-5-(5-chloro-2-cyanomethyloxyphenyl)pyrrole-3-carboxamide], the response vs control in vivo at 30 mg/kg in assay [1] was 57%. Besides, the inhibition at 10 µM in assay [2] worked out at 99%.

As for `NC(=O)Nc1[nH]c(-c2cc(F)ccc2OCCO)cc1C(N)=O` [Compound 4-54, 2-Aminocarbonylamino-5-[5-fluoro-2-(2-hydroxyethyloxy)phenyl]pyrrole-3-carboxamide], the response vs control in vivo at 30 mg/kg in assay [1] was determined as 86%. Further, the inhibition at 10 µM in assay [2] is 96%.
